From the supplement of paper PMC10307832

Key:
Assay in all cases: relative viability (nuclei count vs DMSO), 5 days (fraction); higher = more cells survive
Ponatinib + Dasatinib = compound: Cc1ccc(C(=O)Nc2ccc(CN3CCN(C)CC3)c(C(F)(F)F)c2)cc1C#Cc1cnc2cccnn12 [Ponatinib] + Cc1nc(Nc2ncc(C(=O)Nc3c(C)cccc3Cl)s2)cc(N2CCN(CCO)CC2)n1 [Dasatinib] (partner 0.075 µM)
In short: (§1)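 One day after seeding in 1536-well plates, lung cancer cell lines were dosed by pin tool. Dosing was either single-drug or a fixed anchor-drug dose plus five library-drug doses (not always all listed) in √10 steps. After 5 days, nuclei were stained in one fix-and-stain step and counted on 4× images, and relative viability is the nuclei count of treated wells over that of vehicle wells, given as the median of duplicate plates.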

Pazopanib + Trametinib = compound: Cc1ccc(Nc2nccc(N(C)c3ccc4c(C)n(C)nc4c3)n2)cc1S(N)(=O)=O [Pazopanib] + CC(=O)Nc1cccc(-n2c(=O)n(C3CC3)c(=O)c3c(Nc4ccc(I)cc4F)n(C)c(=O)c(C)c32)c1 [Trametinib] (partner 0.02 µM)
In short: as §1

Ponatinib + Bortezomib = compound: Cc1ccc(C(=O)Nc2ccc(CN3CCN(C)CC3)c(C(F)(F)F)c2)cc1C#Cc1cnc2cccnn12 [Ponatinib] + CC(C)C[C@H](NC(=O)[C@H](Cc1ccccc1)NC(=O)c1cnccn1)B(O)O [Bortezomib] (partner 0.002 µM)
In short: as §1

Pazopanib + Foretinib = compound: Cc1ccc(Nc2nccc(N(C)c3ccc4c(C)n(C)nc4c3)n2)cc1S(N)(=O)=O [Pazopanib] + COc1cc2c(Oc3ccc(NC(=O)C4(C(=O)Nc5ccc(F)cc5)CC4)cc3F)ccnc2cc1OCCCN1CCOCC1 [Foretinib] (partner 0.25 µM)
In short: as §1

| Cell Line | relative viability (Ponatinib + Dasatinib; first compound 0.002 µM) | relative viability (Ponatinib + Dasatinib; first compound 0.006325 µM) | relative viability (Ponatinib + Dasatinib; first compound 0.06325 µM) | relative viability (Ponatinib + Dasatinib; first compound 0.2 µM) | relative viability (Pazopanib + Trametinib; first compound 0.01 µM) | relative viability (Pazopanib + Trametinib; first compound 0.03162 µM) | relative viability (Pazopanib + Trametinib; first compound 0.1 µM) | relative viability (Pazopanib + Trametinib; first compound 0.3162 µM) | relative viability (Pazopanib + Trametinib; first compound 1 µM) | relative viability (Ponatinib + Bortezomib; first compound 0.002 µM) | relative viability (Ponatinib + Bortezomib; first compound 0.006325 µM) | relative viability (Ponatinib + Bortezomib; first compound 0.06325 µM) | relative viability (Ponatinib + Bortezomib; first compound 0.2 µM) | relative viability (Pazopanib + Foretinib; first compound 0.03162 µM) | relative viability (Pazopanib + Foretinib; first compound 0.1 µM) | relative viability (Pazopanib + Foretinib; first compound 0.3162 µM) | relative viability (Pazopanib + Foretinib; first compound 1 µM) | relative viability (Pazopanib + Foretinib; first compound 0.01 µM) |
| --- | --- | --- | --- | --- | --- | --- | --- | --- | --- | --- | --- | --- | --- | --- | --- | --- | --- | --- |
| NCI-H2023 | 0.494 | 0.522 | 0.807 | 0.409 | 0.555 | 0.619 | 0.615 | 0.574 | 0.491 | 0.957 | 0.982 | 1.17 | 0.764 | 0.886 | 0.77 | 0.849 | 0.893 | – |
| NCI-H1792 | 0.726 | 0.795 | 0.886 | 0.542 | – | 0.432 | 0.418 | 0.349 | 0.443 | 0.918 | 0.942 | 1.14 | 0.854 | – | – | – | – | – |
| NCI-H2342 | 0.285 | 0.309 | 0.296 | 0.296 | 0.778 | 0.918 | 0.821 | 0.754 | 0.674 | – | – | – | – | 1 | 1.09 | 0.939 | 0.755 | 0.981 |
| NCI-H1299 | – | – | – | – | – | – | – | – | – | 1.05 | 1 | 1.06 | 0.993 | 1.06 | 1.13 | 1.09 | 1.01 | 1.07 |
| SW 900 | 0.682 | 0.494 | 0.453 | 0.48 | 1.03 | 0.837 | – | 0.974 | 1.03 | – | – | – | – | 0.886 | 0.941 | 0.876 | 0.97 | 0.843 |
| NCI-H1395 | 0.392 | 0.404 | 0.427 | 0.393 | 0.833 | 1.14 | 1.05 | 1.01 | 0.952 | – | – | – | – | 1.07 | 1.01 | 0.931 | 0.968 | 0.947 |
| NCI-H1648 | – | – | – | – | – | – | 0.452 | 0.454 | 0.427 | – | – | – | – | – | – | – | – | – |
| NCI-H522 | 0.782 | 0.846 | 0.703 | 0.816 | 0.727 | 0.771 | 0.735 | 0.786 | 0.811 | – | – | – | – | – | – | – | – | – |
| LK-2 | – | 0.268 | 0.196 | 0.158 | 0.643 | 0.788 | 0.562 | 0.565 | 0.755 | – | – | – | – | 1.2 | 1.07 | 1.11 | 1.01 | – |
| NCI-H1793 | 0.37 | 0.36 | 0.348 | 0.352 | – | 0.425 | 0.411 | 0.404 | 0.502 | – | – | – | – | 0.478 | 0.628 | 0.867 | 0.938 | – |
| A549 | – | – | – | – | – | – | – | – | – | – | – | – | – | 1.03 | 1.16 | 0.985 | 0.913 | 0.905 |
| NCI-H358 | 0.185 | 0.184 | 0.236 | 0.187 | 0.145 | 0.134 | 0.124 | 0.167 | 0.141 | – | – | – | – | 0.91 | 0.838 | – | 0.918 | 0.726 |
| NCI-H1563 | 0.473 | 0.506 | 0.447 | 0.434 | – | – | – | – | – | 0.773 | 0.847 | 0.836 | 0.571 | 0.966 | 1.04 | 0.969 | 1.08 | 0.823 |
| ABC-1 | 0.465 | 0.614 | 0.539 | 0.629 | – | – | – | – | – | 0.347 | 0.286 | 0.299 | 0.283 | 1.06 | – | 0.975 | 1.04 | 0.843 |
